Measured values: patent US20150011423A1, “MEANS AND METHODS FOR ASSESSING KIDNEY TOXICITY” (BASF SE, priority 2011, published 2015)
Marks after values point to notes of the source that are not given here.

System: rats
Assay: 28-day repeated dose study in rats with mass spectrometry-based plasma metabolite profiling (GC-MS, LC-MS, SPE-LC-MS); treatment ratios versus control
Conditions: plasma; for Adrenaline (Epinephrine), treatment ratio versus control / Glucosamine, treatment ratio versus control / Histamine, treatment ratio versus control / Mannosamine, treatment ratio versus control: Table 2b glomerular-tubular defect; for 4-Hydroxy-3-methoxyphenylglycol (HMPG), treatment ratio versus control / Cysteine, treatment ratio versus control / Isopalmitic acid (C16:0), treatment ratio versus control / Metanephrine, treatment ratio versus control / Normetanephrine, treatment ratio versus control: Table 2d glomerular-tubular defect
[1] = female rats, day 28, high dose, Table 5a tubular necrosis
[2] = female rats, day 28, high dose, Table 5b tubular necrosis
[3] = female rats, day 14, high dose, Table 2a glomerular-tubular defect
[4] = female rats, day 28, high dose, Table 2a glomerular-tubular defect
[5] = male rats, day 7, high dose, Table 2c glomerular-tubular defect
[6] = male rats, day 14, high dose, Table 2c glomerular-tubular defect
[7] = male rats, day 28, high dose, Table 2c glomerular-tubular defect

C[C@@H]1[C@H](O)[C@@H](C)/C=C/C=C/C=C/C=C/C=C/C=C/C=C/[C@H](O[C@@H]2O[C@H](C)[C@@H](O)[C@H](N)[C@@H]2O)C[C@@H]2O[C@](O)(C[C@@H](O)C[C@@H](O)[C@H](O)CC[C@@H](O)C[C@@H](O)CC(=O)O[C@H]1C)C[C@H](O)[C@H]2C(=O)O [Amphotericin B]
Docosahexaenoic acid (C22:cis[4,7,10,13,16,19]6), treatment ratio versus control [1]: 1.32 *
Docosapentaenoic acid (C22:cis[7,10,13,16,19]5), treatment ratio versus control [1]: 1.23 *
Eicosanoic acid (C20:0), treatment ratio versus control [1]: 1.18 *
Glycerol, lipid fraction, treatment ratio versus control [1]: 1.31 *
Leucine, treatment ratio versus control [1]: 1.21 *
Phosphate (inorganic and organic phosphates), treatment ratio versus control [1]: 1.25 *
Hippuric acid, treatment ratio versus control [2]: 0.44 *
Lactate, treatment ratio versus control [2]: 0.68 *

C[C@H](CS)C(=O)N1CCC[C@H]1C(=O)O [Captopril]
3-Hydroxyindole, treatment ratio versus control [3]: 1.35
3-Indoxylsulfate, treatment ratio versus control [3]: 1.2
Creatine, treatment ratio versus control [3]: 1.18*
Creatinine, treatment ratio versus control [3]: 1.06
Elaidic acid (C18:trans[9]1), treatment ratio versus control [3]: 1.18
Lysophosphatidylcholine (C20:4), treatment ratio versus control [3]: 1.04
Xylitol, treatment ratio versus control [3]: 1.17
Adrenaline (Epinephrine), treatment ratio versus control (female rats, day 14, high dose): 1.27
Glucosamine, treatment ratio versus control (female rats, day 14, high dose): 0.4 *
Histamine, treatment ratio versus control (female rats, day 14, high dose): 0.93
Mannosamine, treatment ratio versus control (female rats, day 14, high dose): 0.69 *
3-Hydroxyindole, treatment ratio versus control [4]: 1.21 *
3-Indoxylsulfate, treatment ratio versus control [4]: 1.21 *
Creatine, treatment ratio versus control [4]: 1.33 *
Creatinine, treatment ratio versus control [4]: 1.93 *
Elaidic acid (C18:trans[9]1), treatment ratio versus control [4]: 1.22 *
Lysophosphatidylcholine (C20:4), treatment ratio versus control [4]: 1.24 *
Xylitol, treatment ratio versus control [4]: 1.31 *
Adrenaline (Epinephrine), treatment ratio versus control (female rats, day 28, high dose): 0.28 *
Glucosamine, treatment ratio versus control (female rats, day 28, high dose): 1.06^
Histamine, treatment ratio versus control (female rats, day 28, high dose): 0.81 *
Mannosamine, treatment ratio versus control (female rats, day 28, high dose): 1.04^
Creatine, treatment ratio versus control [5]: 1.16 *
Creatinine, treatment ratio versus control [5]: 1.32^
Glycerol-3-phosphate, polar fraction, treatment ratio versus control [5]: 1.28 *
Lysophosphatidylcholine (C18:2), treatment ratio versus control [5]: 1.07 *
Threonic acid, treatment ratio versus control [5]: 1.37 *
4-Hydroxy-3-methoxyphenylglycol (HMPG), treatment ratio versus control (male rats, day 7, high dose): 1.07^
Cysteine, treatment ratio versus control (male rats, day 7, high dose): 0.59 *
Isopalmitic acid (C16:0), treatment ratio versus control (male rats, day 7, high dose): 0.78 *
Metanephrine, treatment ratio versus control (male rats, day 7, high dose): 0.81 *
Normetanephrine, treatment ratio versus control (male rats, day 7, high dose): 0.9
Creatine, treatment ratio versus control [6]: 1.06 *
Creatinine, treatment ratio versus control [6]: 1.12 *
Glycerol-3-phosphate, polar fraction, treatment ratio versus control [6]: 0.97^
Lysophosphatidylcholine (C18:2), treatment ratio versus control [6]: 1.2 *
Threonic acid, treatment ratio versus control [6]: 1.27 *
4-Hydroxy-3-methoxyphenylglycol (HMPG), treatment ratio versus control (male rats, day 14, high dose): 0.91 *
Cysteine, treatment ratio versus control (male rats, day 14, high dose): 0.77 *
Isopalmitic acid (C16:0), treatment ratio versus control (male rats, day 14, high dose): 0.64 *
Metanephrine, treatment ratio versus control (male rats, day 14, high dose): 0.7 *
Normetanephrine, treatment ratio versus control (male rats, day 14, high dose): 0.89 *
Creatine, treatment ratio versus control [7]: 1.31
Creatinine, treatment ratio versus control [7]: 1.05
Glycerol-3-phosphate, polar fraction, treatment ratio versus control [7]: 1.29 *
Lysophosphatidylcholine (C18:2), treatment ratio versus control [7]: 1.09
Threonic acid, treatment ratio versus control [7]: 1.14 *
4-Hydroxy-3-methoxyphenylglycol (HMPG), treatment ratio versus control (male rats, day 28, high dose): 0.86 *
Cysteine, treatment ratio versus control (male rats, day 28, high dose): 0.72 *
Isopalmitic acid (C16:0), treatment ratio versus control (male rats, day 28, high dose): 0.83^
Metanephrine, treatment ratio versus control (male rats, day 28, high dose): 0.76 *
Normetanephrine, treatment ratio versus control (male rats, day 28, high dose): 0.73 *
